From US20260217659A1, “COMPOUNDS, COMPOSITIONS AND USES THEREOF IN THE TREATMENT AND PREVENTION OF DISEASES AND CONDITIONS ASSOCIATE WITH OR AGGRAVATED BY IMPAIRED MITOPHAGY OR OXIDATIVE STRESS” (Yissum Research Development Company of The Hebrew …, priority 2023, published 2026) come the findings set out here.

One data set relates to HUH7 cells. As to the kind of experiment: XTT proliferation inhibition, HUH7. Type of data set: cell-based. The settings on record: Homo sapiens, Huh-7, HUH7, liver cancer (HCC), 72 h. The method, then:
(§1) Cell lines: PANC-1. Organism: Homo sapiens, human/Tissue: Pancreas; Duct/Disease: Epithelioid Carcinoma HUH7. Organism: Homo sapiens, human/Tissue: Liver/Disease: Carcinoma; Hepatocellular NCI-H69. Organism: Homo sapiens, human/Tissue: Lung/Disease: NSCL U87 MG. Organism: Homo sapiens, human/Tissue: Brain/Disease: Glioma
(§2) PANC-1, HUH7, NCI-H69 and U87 MG cells are plated in one 96 well plate each, in their culture medium, at 7500 cells/well. Cells are allowed to attach for 16-24 hours at 37° C., 5% CO2. Thereafter, culture medium is discarded, and fresh culture medium is added to the cells, supplemented with elevating ST-1944 concentrations: 0.4, 2, 10 and 50 μM, 3 wells of each concentration (triplicates). The cells are incubated another 72±2 hours at 37° C., 5% CO2. At the end of incubation period, medium is discarded and 100 μL fresh culture medium is added to the cells along with 50 μL XTT reagent. The OD is measured in a plate reader once Vehicle treated cells are reach the range of 0.5-1.5 OD at 450 nm wavelength.
(§3) PANC-1 and HUH7culture medium: DMEM Medium (4.5 g/L glucose), supplemented with 10% FBS (heat inactivated), 2 mM L-Glutamine, and 1% of Pen/Strep Solution. U87 MG and NCI-H69 culture medium: EMEM Medium, supplemented with 10% FBS (heat inactivated), 2 mM L-Glutamine, and 1% of Pen/Strep Solution. […]
(In general: Tetrazolium assays rely on reduction of a dye to a coloured formazan, in cell work by metabolically active cells.)

For another data set, the system named is PANC-1 cells. As to the kind of experiment: XTT proliferation inhibition, PANC-1. Type of data set: cell-based. To be noted: Homo sapiens, Panc-1, pancreatic cancer, 72 h. The method, then: as §1, §2, §3
A further data set relates to NCI-H69 cells. Briefly: XTT proliferation inhibition, NCI-H69. Type of data set: cell-based. The settings on record: Homo sapiens, NCI-H69, lung cancer (NSCLC), 72 h. As for the experimental part: as §1, §2, §3
In a further data set the test system is U87 MG cells. Briefly: XTT proliferation inhibition, U87 MG. Type of data set: cell-based. The settings on record: Homo sapiens, U-87 MG, glioma (GBM), 72 h. As for the experimental part: as §1, §2, §3
In another data set the test system is Huh-7 cells. Briefly: Huh-7 cell survival, MTT assay. The data set is classed as cell-based, human. To be noted: 72 h. The method, then: Huh-7 cells (2000 per well, in 96-wells plate) were treated with 100 μM of each compound. Cell viability was measured by MTT assay after 72 h. Asterisks represent a comparison to vehicle control. ****p<0.0001. N=3 biological repeats. Error bars represent SEM.
(§4) FIGS. 5A-5D show how ST-480 and CQ kill Huh-7 cells in a dose-dependent manner. (5A) Surviving curves in 200 mM paraquat (PQ). Worms were treated with ST-480 at the indicated concentrations or with the vehicle as a control for 48 h. Afterward, they were treated with 200 mM PQ, and their survival was measured after 3 and 6 h. N=6 biological repeats, P values are indicated (compared with the vehicle control). Bar graphs displaying the survival of Huh-7 cells in different doses of CQ (4B) and ST-480 (5C) —the experimental setup was similar to that described in FIG. 1. Asterisks represent a comparison to vehicle control. N=3 biological repeats. (5D) Bar graph showing the combined effect of ST-480 and CQ on Huh-7 cells' survival after 72 h. *p<0.05, ***p<0.001, ****p<0.0001. N=3 biological repeats. *Error bars represent SEM.
ST-480, is one of the diamine compounds of the invention that inhibits liver cancer cell viability. […] Therefore, the activity of the polyamine compound of the invention in liver cancer therapy. To explore this, the inventors screened the effect of eight new compounds. In addition, the effect of two compounds in the context of lifespan, health-span, and proteotoxicity, i.e., the diamines VL-004 and VL-850 were examined, and the natural polyamine spermidine (Spd). Huh-7 cells (derived from hepatocellular carcinoma of a person) were exposed to 100 μM of each compound and examined their survival after 72 h using an MTT assay.
Chloroquine (CQ) has been used safely to treat malaria and to suppress autophagic flux. Moreover, as indicated above, it induces DNA damage and apoptosis in cancer cells. The effect of different CQ concentrations on Huh-7 cells' survival after 72 h were tested. In parallel, dose-response experiments testing ST-480 toxicity in these cells were performed.

The test system of a further data set is C. elegans. As to the kind of experiment: Survival of worms in 200 mM paraquat (oxidative stress resistance). The settings on record: 48 h treatment, then 200 mM paraquat, survival after 3 and 6 h. The data set is classed as in vivo. The method, then: as §4
Chloroquine (CQ) enhances ST-480 cytotoxicity.

In data set [1] the test system is Hep-3B cells. Briefly: Hep-3B cell survival. Type of data set: cell-based, human. The settings on record: single agent, 72 h. The method, then:
(§5) FIGS. 6A-6E show how ST-480 and CQ effectively kill Hep-3B cancer cells. Bar graphs displaying the effects of ST-480 (6A) and CQ (6B) and their combined effect 6C) on Hep-3B cells' survival after 72 h—the experimental setup was similar Asterisks represent a comparison to vehicle control (6A and 6B) or towards (the same CQ concentration under vehicle treatment conditions (5C). *p<0.05, **p<0.01, ***p<0.001, ****p<0.0001. N=3 biological repeats. (5D) Representative images show the state of Hep-3B cells treated as described in (6C). Scale bar: 200 μm. (5E) BEAS-2B cells are not sensitive to ST-480, ns-non-significance. N-3. Error bars represent SEM.
(§6) To strengthen these conclusions, the impact of ST-480 and CQ was tested on another liver cancer cell line, namely Hep-3B′ the Hep-3B cell line originated from a person with primary hepatocellular carcinoma (HCC). […] In addition, the combined effect of ST-480 and CQ on Hep-3B survival was tested. […] In this respect, it should be emphasized that ST-480 was not toxic to non-cancer cells.

The subject of a further data set is BEAS-2B cells. As to the kind of experiment: BEAS-2B non-cancer cell survival. The data set is classed as cell-based. To be noted: 70 µM and 100 μM, 72 h. The method, then:
as §5, §6

Data set [2] deals with Hep-3B cells. As to the kind of experiment: Mitophagy: colocalization of mitochondria and lysosomes in Hep-3B cells. Type of data set: cell-based, human. The settings on record: 100 μM, 6 h. As for the experimental part:
FIGS. 7A-7B show how ST-480 induces mitophagy. (7A) Colocalization of mitochondria and lysosome. Arrowheads indicate representative colocalization. The inset represents an eight-fold enlargement-scale bar: 50 μm. (7B) Colocalization quantification. N=3, ≥412 cells per treatment. *p<0.05, Error bars represent SEM.
ST-480 induces mitophagy in Hep-3B cells. To explore whether ST-480 induces mitophagy, Hep-3B cells were exposed to 100 μM ST-480 or vehicle control for 6 h. To measure mitophagy, the colocalization of mitochondria and lysosomes were quantified using specific mitochondrial and lysosomal dyes. In addition, nuclei were stained using a DNA dye—For this, the Cytopainter ab139487 kit, was used.

The IC50 is the point on the concentration scale where inhibition reaches its midpoint. Low readings indicate higher potency, high ones lower potency. Take `Cn1ccnc1SCCCCc1ccccc1CCCCSc1nccn1C` [ST-1944]: the 50% inhibitory concentration (IC50) in the data set with HUH7 cells is 2 µM; in the data set on PANC-1 cells, 1 µM; in the data set with NCI-H69 cells, 10 µM; in the data set on U87 MG cells, 10 µM.

Regarding `NCCCCc1ccccc1CCCCN` [ST-480], the Huh-7 cell survival entry in the data set on Huh-7 cells (100 μM, MTT assay) is “significantly decreased Huh-7 cell survival”. The “Huh-7 cells' survival, dose response” value in the data set on Huh-7 cells (ST-480 at 60, 80, and 100 μM) is on record as “significantly decreased cells' survival”. Further, in the data set with C. elegans, the “resistance to oxidative stress” value is given as “confer resistance to oxidative stress”. Moreover, the “Hep-3B cells' survival” value with Hep-3B cells [1] is “sensitive to both ST-480 and CQ in a dose-dependent manner”. The “cell death of non-cancer BEAS-2B cells” value in the data set on BEAS-2B cells is given as “did not observe a significant cell death”. Besides, the “mitophagy (colocalization of mitochondria and lysosomes)” value with Hep-3B cells [2] is listed as “induces mitophagy in a significant manner”.

For the molecule `CCN(CC)CCCC(C)Nc1ccnc2cc(Cl)ccc12` (stereo not drawn) [CQ, chloroquine, reference compound], in the data set with Huh-7 cells (CQ at 7, 8, and 10 μM), the “Huh-7 cells' survival, dose response” value is “significantly decreased cells' survival”. In the data set with Hep-3B cells [1], the “Hep-3B cells' survival” value is “sensitive to both ST-480 and CQ in a dose-dependent manner”.
